Experimental data taken from ChEMBL document CHEMBL1150566, “Pitipeptolides A and B, new cyclodepsipeptides from the marine cyanobacterium Lyngbya majuscula” (J Nat Prod, 2001).
≈ marks a conversion by molar mass, not a printed value. Calls of active or inactive are those of the source. The calls are words filed in the database; no cut-off is given here. Numbered stars: 1 amine (or outer) side, 2 acyl side, 3 side chain; on linkers, the order of the positions; unused ones are H or OH. Bridge positions count the residues as written; N and C are the ends. Square brackets hold non-standard residues; d marks the D form. Peptide text beside a SMILES is read from it. X1 = C=CCCC[C@H](O[*:2])C(C)(C)C(=O)[*:1]; X2 = C#CCCC[C@H](O[*:2])C(C)(C)C(=O)[*:1]; Hmpa(2S,3S) = CC[C@H](C)[C@H](O)C(=O)O; NMeF = CN[C@@H](Cc1ccccc1)C(=O)O

Experiments:
[1] = Inhibition of elastase
[2] = target: Prothrombin (Homo sapiens) (UniProt P00734); experiment: Inhibition of thrombin
[3] = system: Mycobacterium tuberculosis; experiment: Antimycobacterial activity against Mycobacterium tuberculosis ATCC 35818 at 100 ug/disk by disk diffusion susceptibility assay; assay type: functional; conditions: read-out: DIZ
[4] = system: Mycobacterium tuberculosis; experiment: Antimycobacterial activity against Mycobacterium tuberculosis ATCC 25177 at 25 ug/disk by disk diffusion susceptibility assay; assay type: functional; conditions: read-out: DIZ
[5] = Stimulation of elastase activity at 50 ug/ml relative to control
[6] = Inhibition of trypsin
[7] = system: Mycobacterium tuberculosis; experiment: Antimycobacterial activity against Mycobacterium tuberculosis ATCC 35818 at 25 ug/disk by disk diffusion susceptibility assay; assay type: functional; conditions: read-out: DIZ
Papain (Carica papaya) = target: T1, Papain (Carica papaya) (UniProt P00784); experiment: Inhibition of papaya papain
T1 sequence (whole entry): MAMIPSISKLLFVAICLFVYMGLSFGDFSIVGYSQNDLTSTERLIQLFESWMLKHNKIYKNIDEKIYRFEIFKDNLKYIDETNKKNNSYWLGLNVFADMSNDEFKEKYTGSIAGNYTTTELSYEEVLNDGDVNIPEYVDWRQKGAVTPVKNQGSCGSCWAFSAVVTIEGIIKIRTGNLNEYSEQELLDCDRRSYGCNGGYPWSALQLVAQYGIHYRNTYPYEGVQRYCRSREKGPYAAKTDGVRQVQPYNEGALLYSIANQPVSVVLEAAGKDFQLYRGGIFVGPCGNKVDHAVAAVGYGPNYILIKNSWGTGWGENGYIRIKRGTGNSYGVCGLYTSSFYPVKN

LoVo = experiment: Cytotoxicity against human LoVo cells; assay type: functional, cell-based
[8] = Inhibition of chymotrypsin
[9] = system: Mycobacterium tuberculosis; experiment: Antimycobacterial activity against Mycobacterium tuberculosis ATCC 25177 at 100 ug/disk by disk diffusion susceptibility assay; assay type: functional; conditions: read-out: DIZ
[10] = target: Plasminogen (Homo sapiens) (UniProt P00747); experiment: Inhibition of plasmin
[11] = system: Mycobacterium tuberculosis; experiment: Antimycobacterial activity against Mycobacterium tuberculosis ATCC 35818 at 1 ug/disk by disk diffusion susceptibility assay; assay type: functional; conditions: read-out: DIZ
[12] = system: Mycobacterium tuberculosis; experiment: Antimycobacterial activity against Mycobacterium tuberculosis ATCC 35818 at 5 ug/disk by disk diffusion susceptibility assay; assay type: functional; conditions: read-out: DIZ
[13] = system: Mycobacterium tuberculosis; experiment: Antimycobacterial activity against Mycobacterium tuberculosis ATCC 25177 at 1 ug/disk by disk diffusion susceptibility assay; assay type: functional; conditions: read-out: DIZ
[14] = system: Mycobacterium tuberculosis; experiment: Antimycobacterial activity against Mycobacterium tuberculosis ATCC 25177 at 5 ug/disk by disk diffusion susceptibility assay; assay type: functional; conditions: read-out: DIZ

Sequence of Plasminogen (Homo sapiens) (P00747 97-580 limits assumed): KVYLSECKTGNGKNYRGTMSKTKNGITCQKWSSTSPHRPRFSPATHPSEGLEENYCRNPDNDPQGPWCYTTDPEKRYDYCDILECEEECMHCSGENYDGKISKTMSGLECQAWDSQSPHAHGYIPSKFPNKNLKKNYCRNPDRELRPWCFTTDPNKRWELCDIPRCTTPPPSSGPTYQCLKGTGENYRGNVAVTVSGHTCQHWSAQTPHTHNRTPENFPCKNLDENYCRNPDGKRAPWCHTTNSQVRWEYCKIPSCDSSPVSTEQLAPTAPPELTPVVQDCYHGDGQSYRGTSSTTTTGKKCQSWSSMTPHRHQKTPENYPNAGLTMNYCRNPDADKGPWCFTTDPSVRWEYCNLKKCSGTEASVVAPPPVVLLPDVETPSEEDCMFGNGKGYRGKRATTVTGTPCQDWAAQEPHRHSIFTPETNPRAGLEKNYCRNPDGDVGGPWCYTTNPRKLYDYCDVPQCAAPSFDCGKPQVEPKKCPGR
Sequence of Plasminogen (Homo sapiens) (P00747 581-810 limits assumed): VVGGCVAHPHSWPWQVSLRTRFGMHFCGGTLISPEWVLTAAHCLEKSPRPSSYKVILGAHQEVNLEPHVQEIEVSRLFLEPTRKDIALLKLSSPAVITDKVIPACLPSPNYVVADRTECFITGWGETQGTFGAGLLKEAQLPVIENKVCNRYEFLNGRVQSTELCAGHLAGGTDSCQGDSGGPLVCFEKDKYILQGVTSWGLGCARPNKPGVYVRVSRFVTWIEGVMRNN

| Structure (SMILES) | Activity [1] | Activity [2] | zone of inhibition at 100 µg/disc [3] | zone of inhibition at 25 µg/disc [4] | fold change (FC) [5] | Activity [6] | zone of inhibition at 25 µg/disc [7] | Activity (Papain (Carica papaya)) | IC50 (LoVo) | Activity [8] | zone of inhibition at 100 µg/disc [9] | Activity [10] | zone of inhibition at 1 µg/disc [11] | zone of inhibition at 5 µg/disc [12] | zone of inhibition at 1 µg/disc [13] | zone of inhibition at 5 µg/disc [14] |
| --- | --- | --- | --- | --- | --- | --- | --- | --- | --- | --- | --- | --- | --- | --- | --- | --- |
| C#CCCC[C@@H]1OC(=O)CNC(=O)[C@H]([C@@H](C)CC)NC(=O)[C@@H]2CCCN2C(=O)[C@H]([C@@H](C)CC)OC(=O)[C@H](Cc2ccccc2)N(C)C(=O)[C@H](C(C)C)NC(=O)C1(C)C [PITIPEPTOLIDE A] (V[NMeF][Hmpa(2S,3S)]PIG; linker N-C via X2) | inactive | inactive | 15 mm | 10 mm | 2.76 | inactive | 9 mm | inactive | 2.25 µg/mL (≈ 2.78 µM) | inactive | 25 mm | inactive | – | – | – | – |
| CN[C@@H]1[C@H](O[C@H]2[C@H](O[C@H]3[C@H](O)[C@@H](O)[C@H](N=C(N)N)[C@@H](O)[C@@H]3N=C(N)N)O[C@@H](C)[C@]2(O)C=O)O[C@@H](CO)[C@H](O)[C@H]1O [STREPTOMYCIN] | – | – | – | 50 mm | – | – | 55 mm | – | – | – | – | – | 10 mm | 33 mm | 0 mm | 15 mm |
| C=CCCC[C@@H]1OC(=O)CNC(=O)[C@H]([C@@H](C)CC)NC(=O)[C@@H]2CCCN2C(=O)[C@H]([C@@H](C)CC)OC(=O)[C@H](Cc2ccccc2)N(C)C(=O)[C@H](C(C)C)NC(=O)C1(C)C [PITIPEPTOLIDE B] (V[NMeF][Hmpa(2S,3S)]PIG; linker N-C via X1) | inactive | inactive | 15 mm | 15 mm | 2.55 | inactive | 10 mm | inactive | 1.95 µg/mL (≈ 2.41 µM) | inactive | 30 mm | inactive | – | – | – | – |
